Laboratory results: the kinase profiling compilation of Christmann-Franck et al. (2016)

What was measured:
Experiment in all cases: KINOMEscan competition binding
STK39 (human) = STK39 (human) (UniProt Q9UEW8); conditions: compound 1.0 µM
[1] = system: MET (human), P08581 [Y1235D]; conditions: compound 1.0 µM
NTRK1 (human) = NTRK1 (human) (UniProt P04629); conditions: compound 1.0 µM
MAPK7 (human) = MAPK7 (human) (UniProt Q13164); conditions: compound 1.0 µM
CDKL2 (human) = CDKL2 (human) (UniProt Q92772); conditions: compound 1.0 µM
STK17A (human) = STK17A (human) (UniProt Q9UEE5); conditions: for kinase still bound, per cent of control: compound 1.0 µM
CDC42BPG (human) = CDC42BPG (human) (UniProt Q6DT37); conditions: compound 1.0 µM
SIK3 (human) = SIK3 (human) (UniProt Q9Y2K2); conditions: compound 1.0 µM
MAPK6 (human) = MAPK6 (human) (UniProt Q16659); conditions: for kinase still bound, per cent of control: compound 1.0 µM
MAPKAPK5 (human) = MAPKAPK5 (human) (UniProt Q8IW41); conditions: compound 1.0 µM
[2] = system: EGFR (human), P00533 [G719S]; conditions: compound 1.0 µM
IGF1R (human) = IGF1R (human) (UniProt P08069); conditions: compound 1.0 µM
YSK4 (human) = YSK4 (human) (UniProt Q56UN5); conditions: for kinase still bound, per cent of control: compound 1.0 µM
[3] = system: KIT (human), P10721 [V559D/V654A]; conditions: compound 1.0 µM
[4] = system: KIT (human), P10721 [V559D/T670I]; conditions: compound 1.0 µM
PIK3C2G (human) = PIK3C2G (human) (UniProt O75747); conditions: compound 1.0 µM
CaMK1 (human) = CaMK1 (human) (UniProt Q14012); conditions: compound 1.0 µM
STK25 (human) = STK25 (human) (UniProt O00506); conditions: compound 1.0 µM
[5] = target: JAK1 JH1 catalytic (human) (UniProt P23458); conditions: compound 1.0 µM
FGR (human) = FGR (human) (UniProt P09769); conditions: compound 1.0 µM
MATK (human) = MATK (human) (UniProt P42679); conditions: compound 1.0 µM
EIF2AK2 (human) = EIF2AK2 (human) (UniProt P19525); conditions: compound 1.0 µM
GRK7 (human) = GRK7 (human) (UniProt Q8WTQ7); conditions: compound 1.0 µM
PKN2 (human) = PKN2 (human) (UniProt Q16513); conditions: compound 1.0 µM
[6] = system: PIK3CA (human), P42336 [H1047Y]; conditions: compound 1.0 µM
SRMS (human) = SRMS (human) (UniProt Q9H3Y6); conditions: compound 1.0 µM
CIT (human) = CIT (human) (UniProt O14578); conditions: compound 1.0 µM
MAP3K11 (human) = MAP3K11 (human) (UniProt Q16584); conditions: compound 1.0 µM
CSNK1D (human) = CSNK1D (human) (UniProt P48730); conditions: compound 1.0 µM
PRKD3 (human) = PRKD3 (human) (UniProt O94806); conditions: compound 1.0 µM
WEE1 (human) = WEE1 (human) (UniProt P30291); conditions: compound 1.0 µM
PHKG1 (human) = PHKG1 (human) (UniProt Q16816); conditions: compound 1.0 µM
FLT3 (human) = FLT3 (human) (UniProt P36888); conditions: compound 1.0 µM
EIF2AK1 (human) = EIF2AK1 (human) (UniProt Q9BQI3); conditions: compound 1.0 µM
DDR2 (human) = DDR2 (human) (UniProt Q16832); conditions: compound 1.0 µM
PDPK1 (human) = PDPK1 (human) (UniProt O15530); conditions: compound 1.0 µM
[7] = system: FLT3 (human), P36888 [ITD]; conditions: compound 1.0 µM
TRPM6 (human) = TRPM6 (human) (UniProt Q9BX84); conditions: compound 1.0 µM
ERBB4 (human) = ERBB4 (human) (UniProt Q15303); conditions: compound 1.0 µM
[8] = system: ABL1 (human), P00519 [E255K]; conditions: compound 1.0 µM
MAST1 (human) = MAST1 (human) (UniProt Q9Y2H9); conditions: compound 1.0 µM
KIT (human) = KIT (human) (UniProt P10721); conditions: compound 1.0 µM

Chain of STK17A (human) (Q9UEE5 whole entry, looked up): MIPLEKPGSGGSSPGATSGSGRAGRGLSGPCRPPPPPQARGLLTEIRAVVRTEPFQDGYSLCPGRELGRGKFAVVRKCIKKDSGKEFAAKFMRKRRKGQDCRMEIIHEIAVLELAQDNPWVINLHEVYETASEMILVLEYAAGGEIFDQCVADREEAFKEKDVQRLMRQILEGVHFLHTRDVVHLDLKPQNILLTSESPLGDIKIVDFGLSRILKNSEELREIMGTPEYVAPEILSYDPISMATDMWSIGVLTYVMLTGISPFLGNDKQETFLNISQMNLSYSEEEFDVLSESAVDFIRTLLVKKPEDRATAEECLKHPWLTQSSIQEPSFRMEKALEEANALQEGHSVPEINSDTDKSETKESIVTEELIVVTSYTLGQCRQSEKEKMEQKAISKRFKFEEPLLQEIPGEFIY
Chain of YSK4 (human) (Q56UN5 whole entry, looked up): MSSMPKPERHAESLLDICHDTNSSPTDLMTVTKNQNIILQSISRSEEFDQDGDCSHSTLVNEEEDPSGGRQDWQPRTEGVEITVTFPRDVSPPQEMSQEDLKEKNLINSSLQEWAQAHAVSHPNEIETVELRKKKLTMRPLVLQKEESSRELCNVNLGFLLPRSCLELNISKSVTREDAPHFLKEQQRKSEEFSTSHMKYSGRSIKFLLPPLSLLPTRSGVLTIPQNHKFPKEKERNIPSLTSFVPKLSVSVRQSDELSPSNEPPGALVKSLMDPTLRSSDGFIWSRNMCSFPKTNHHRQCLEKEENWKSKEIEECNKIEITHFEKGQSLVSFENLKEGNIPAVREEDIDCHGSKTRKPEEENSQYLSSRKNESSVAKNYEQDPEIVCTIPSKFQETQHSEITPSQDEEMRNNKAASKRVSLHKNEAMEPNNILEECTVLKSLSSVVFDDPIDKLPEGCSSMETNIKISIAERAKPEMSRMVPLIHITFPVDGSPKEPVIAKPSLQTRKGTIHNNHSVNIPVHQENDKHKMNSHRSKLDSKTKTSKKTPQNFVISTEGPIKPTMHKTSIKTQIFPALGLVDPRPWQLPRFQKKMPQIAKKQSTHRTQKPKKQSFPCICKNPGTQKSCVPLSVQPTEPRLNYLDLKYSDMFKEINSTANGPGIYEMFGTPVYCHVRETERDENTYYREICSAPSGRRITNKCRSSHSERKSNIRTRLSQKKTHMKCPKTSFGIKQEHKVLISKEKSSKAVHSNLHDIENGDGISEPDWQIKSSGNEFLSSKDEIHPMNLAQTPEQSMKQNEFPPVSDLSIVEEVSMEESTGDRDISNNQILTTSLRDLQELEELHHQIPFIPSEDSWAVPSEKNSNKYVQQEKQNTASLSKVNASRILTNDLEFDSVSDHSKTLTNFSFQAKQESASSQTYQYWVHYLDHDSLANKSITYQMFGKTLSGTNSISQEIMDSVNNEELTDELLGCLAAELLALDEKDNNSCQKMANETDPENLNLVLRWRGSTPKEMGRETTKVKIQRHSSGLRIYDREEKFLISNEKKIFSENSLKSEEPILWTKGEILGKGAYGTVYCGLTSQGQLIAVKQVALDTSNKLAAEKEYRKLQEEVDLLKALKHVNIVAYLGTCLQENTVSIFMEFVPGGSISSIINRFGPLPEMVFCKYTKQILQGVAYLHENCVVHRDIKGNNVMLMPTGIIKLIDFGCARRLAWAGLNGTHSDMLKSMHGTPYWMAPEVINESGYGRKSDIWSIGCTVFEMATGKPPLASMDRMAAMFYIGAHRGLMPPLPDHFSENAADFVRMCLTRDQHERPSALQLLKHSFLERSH
Chain of MAPK6 (human) (Q16659 whole entry, looked up): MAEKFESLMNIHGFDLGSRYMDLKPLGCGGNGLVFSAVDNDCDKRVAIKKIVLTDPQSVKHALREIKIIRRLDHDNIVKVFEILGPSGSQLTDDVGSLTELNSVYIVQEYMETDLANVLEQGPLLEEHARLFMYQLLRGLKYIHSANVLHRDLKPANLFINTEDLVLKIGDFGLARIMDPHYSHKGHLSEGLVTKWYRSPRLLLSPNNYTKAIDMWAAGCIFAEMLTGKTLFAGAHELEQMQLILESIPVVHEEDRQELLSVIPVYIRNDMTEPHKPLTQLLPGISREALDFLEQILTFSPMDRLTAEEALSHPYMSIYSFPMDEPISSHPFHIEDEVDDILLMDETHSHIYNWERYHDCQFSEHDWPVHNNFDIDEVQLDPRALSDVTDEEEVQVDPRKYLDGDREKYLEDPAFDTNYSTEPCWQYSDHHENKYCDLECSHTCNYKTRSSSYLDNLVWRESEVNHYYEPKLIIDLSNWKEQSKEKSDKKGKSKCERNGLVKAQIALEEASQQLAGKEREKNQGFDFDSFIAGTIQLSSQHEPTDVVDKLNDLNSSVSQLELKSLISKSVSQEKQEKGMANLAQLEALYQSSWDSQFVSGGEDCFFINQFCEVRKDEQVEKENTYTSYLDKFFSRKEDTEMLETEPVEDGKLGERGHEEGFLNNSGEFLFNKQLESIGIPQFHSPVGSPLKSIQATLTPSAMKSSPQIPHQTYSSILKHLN
Chain of CDKL2 (human) (Q92772 whole entry, looked up): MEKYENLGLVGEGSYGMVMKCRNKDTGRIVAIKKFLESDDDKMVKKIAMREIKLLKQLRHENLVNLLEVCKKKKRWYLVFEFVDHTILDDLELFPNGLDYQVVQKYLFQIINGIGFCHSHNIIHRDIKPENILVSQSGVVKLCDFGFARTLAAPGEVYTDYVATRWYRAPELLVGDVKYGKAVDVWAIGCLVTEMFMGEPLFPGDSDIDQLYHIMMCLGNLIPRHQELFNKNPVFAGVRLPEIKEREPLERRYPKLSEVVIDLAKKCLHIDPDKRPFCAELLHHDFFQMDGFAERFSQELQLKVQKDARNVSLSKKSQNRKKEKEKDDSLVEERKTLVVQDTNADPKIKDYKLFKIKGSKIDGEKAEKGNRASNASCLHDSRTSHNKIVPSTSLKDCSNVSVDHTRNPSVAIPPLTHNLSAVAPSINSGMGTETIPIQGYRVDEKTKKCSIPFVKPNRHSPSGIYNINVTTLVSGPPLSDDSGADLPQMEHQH
Chain of TRPM6 (human) (Q9BX84 whole entry, looked up): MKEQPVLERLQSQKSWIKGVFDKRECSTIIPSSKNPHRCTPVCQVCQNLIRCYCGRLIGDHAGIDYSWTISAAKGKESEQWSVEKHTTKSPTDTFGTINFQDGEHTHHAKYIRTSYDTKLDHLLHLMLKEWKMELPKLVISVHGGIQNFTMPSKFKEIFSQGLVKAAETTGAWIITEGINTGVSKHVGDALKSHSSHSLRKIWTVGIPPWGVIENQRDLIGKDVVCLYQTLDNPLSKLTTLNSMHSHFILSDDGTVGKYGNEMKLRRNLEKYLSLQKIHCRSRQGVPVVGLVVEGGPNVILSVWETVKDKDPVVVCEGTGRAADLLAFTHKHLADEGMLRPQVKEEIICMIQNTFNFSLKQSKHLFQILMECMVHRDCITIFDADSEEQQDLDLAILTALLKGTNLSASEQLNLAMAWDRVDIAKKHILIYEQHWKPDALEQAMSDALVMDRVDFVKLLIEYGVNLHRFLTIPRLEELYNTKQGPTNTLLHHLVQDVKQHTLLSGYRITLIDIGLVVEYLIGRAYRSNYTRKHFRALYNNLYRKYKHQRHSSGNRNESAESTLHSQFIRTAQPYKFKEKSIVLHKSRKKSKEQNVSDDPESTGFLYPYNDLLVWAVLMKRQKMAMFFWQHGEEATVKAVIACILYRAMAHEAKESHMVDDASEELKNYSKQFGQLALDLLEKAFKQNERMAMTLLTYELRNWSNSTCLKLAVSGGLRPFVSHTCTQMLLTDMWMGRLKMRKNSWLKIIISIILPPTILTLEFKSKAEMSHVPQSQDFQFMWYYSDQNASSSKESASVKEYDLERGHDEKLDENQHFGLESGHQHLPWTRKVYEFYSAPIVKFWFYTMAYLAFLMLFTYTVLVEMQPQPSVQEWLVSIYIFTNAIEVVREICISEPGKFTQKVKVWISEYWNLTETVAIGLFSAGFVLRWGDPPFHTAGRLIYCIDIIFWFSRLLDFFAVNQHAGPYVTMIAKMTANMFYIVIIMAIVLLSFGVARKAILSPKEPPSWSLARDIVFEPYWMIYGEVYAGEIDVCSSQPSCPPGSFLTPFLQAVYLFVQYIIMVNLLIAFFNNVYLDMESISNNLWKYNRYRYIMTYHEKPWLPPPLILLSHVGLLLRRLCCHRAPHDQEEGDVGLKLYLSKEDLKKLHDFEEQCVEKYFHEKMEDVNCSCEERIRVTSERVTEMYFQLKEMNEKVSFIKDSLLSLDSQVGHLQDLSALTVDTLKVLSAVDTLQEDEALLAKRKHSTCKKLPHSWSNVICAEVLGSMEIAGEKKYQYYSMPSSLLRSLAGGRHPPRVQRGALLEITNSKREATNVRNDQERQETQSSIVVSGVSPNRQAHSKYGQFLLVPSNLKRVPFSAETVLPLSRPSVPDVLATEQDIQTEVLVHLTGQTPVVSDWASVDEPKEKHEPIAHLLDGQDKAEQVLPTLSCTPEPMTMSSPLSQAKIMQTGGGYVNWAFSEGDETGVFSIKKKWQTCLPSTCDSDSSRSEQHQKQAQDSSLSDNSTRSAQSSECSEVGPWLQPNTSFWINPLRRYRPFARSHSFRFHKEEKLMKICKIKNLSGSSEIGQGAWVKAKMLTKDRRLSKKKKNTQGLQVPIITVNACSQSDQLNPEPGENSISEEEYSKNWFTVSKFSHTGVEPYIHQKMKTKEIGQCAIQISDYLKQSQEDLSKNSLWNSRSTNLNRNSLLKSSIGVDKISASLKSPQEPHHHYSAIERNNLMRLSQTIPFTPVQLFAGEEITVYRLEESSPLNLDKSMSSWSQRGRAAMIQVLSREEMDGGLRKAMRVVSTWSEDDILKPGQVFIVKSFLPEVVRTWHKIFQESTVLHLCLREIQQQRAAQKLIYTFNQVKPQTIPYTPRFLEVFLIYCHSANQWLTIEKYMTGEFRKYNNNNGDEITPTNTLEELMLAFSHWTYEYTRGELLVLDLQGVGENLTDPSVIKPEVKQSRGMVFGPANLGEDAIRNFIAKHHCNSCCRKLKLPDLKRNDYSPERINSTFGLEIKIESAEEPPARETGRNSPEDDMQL

CN(C)C/C=C/C(=O)Nc1cccc(C(=O)Nc2ccc(Nc3nccc(-c4cccnc4)n3)cc2)c1
kinase still bound, per cent of control (STK39 (human)): 95% | kinase still bound, per cent of control [1]: 100% | kinase still bound, per cent of control (NTRK1 (human)): 76% | kinase still bound, per cent of control (MAPK7 (human)): 100% | kinase still bound, per cent of control (CDKL2 (human)): 21% | Kd (STK17A (human)): 100 nM | kinase still bound, per cent of control (STK17A (human)): 1.3% | kinase still bound, per cent of control (CDC42BPG (human)): 73% | kinase still bound, per cent of control (SIK3 (human)): 100% | Kd (MAPK6 (human)): 22 nM | kinase still bound, per cent of control (MAPK6 (human)): 0.4% | kinase still bound, per cent of control (MAPKAPK5 (human)): 68% | kinase still bound, per cent of control [2]: 78% | kinase still bound, per cent of control (IGF1R (human)): 100% | Kd (YSK4 (human)): 4.8 nM | kinase still bound, per cent of control (YSK4 (human)): 0.1% | kinase still bound, per cent of control [3]: 67% | kinase still bound, per cent of control [4]: 9.8% | kinase still bound, per cent of control (PIK3C2G (human)): 100% | kinase still bound, per cent of control (CaMK1 (human)): 100% | kinase still bound, per cent of control (STK25 (human)): 58% | kinase still bound, per cent of control [5]: 100% | kinase still bound, per cent of control (FGR (human)): 69% | kinase still bound, per cent of control (MATK (human)): 99% | kinase still bound, per cent of control (EIF2AK2 (human)): 53% | kinase still bound, per cent of control (GRK7 (human)): 86% | kinase still bound, per cent of control (PKN2 (human)): 33% | kinase still bound, per cent of control [6]: 100% | kinase still bound, per cent of control (SRMS (human)): 100% | kinase still bound, per cent of control (CIT (human)): 28% | kinase still bound, per cent of control (MAP3K11 (human)): 67% | kinase still bound, per cent of control (CSNK1D (human)): 5.6% | kinase still bound, per cent of control (PRKD3 (human)): 100% | kinase still bound, per cent of control (WEE1 (human)): 84% | kinase still bound, per cent of control (PHKG1 (human)): 91% | kinase still bound, per cent of control (FLT3 (human)): 64% | kinase still bound, per cent of control (EIF2AK1 (human)): 100% | kinase still bound, per cent of control (DDR2 (human)): 53% | kinase still bound, per cent of control (PDPK1 (human)): 93% | kinase still bound, per cent of control [7]: 16% | kinase still bound, per cent of control (TRPM6 (human)): 100% | kinase still bound, per cent of control (ERBB4 (human)): 100% | kinase still bound, per cent of control [8]: 43% | kinase still bound, per cent of control (MAST1 (human)): 77% | kinase still bound, per cent of control (KIT (human)): 2.4%

Cc1cc(NC(=O)c2cccc(NC(=O)/C=C/CN(C)C)c2)ccc1Nc1nccc(-c2cccnc2)n1
kinase still bound, per cent of control (STK39 (human)): 95% | kinase still bound, per cent of control [1]: 100% | kinase still bound, per cent of control (NTRK1 (human)): 87% | kinase still bound, per cent of control (MAPK7 (human)): 100% | kinase still bound, per cent of control (CDKL2 (human)): 82% | kinase still bound, per cent of control (STK17A (human)): 24% | kinase still bound, per cent of control (CDC42BPG (human)): 86% | kinase still bound, per cent of control (SIK3 (human)): 100% | kinase still bound, per cent of control (MAPK6 (human)): 37% | kinase still bound, per cent of control (MAPKAPK5 (human)): 74% | kinase still bound, per cent of control [2]: 90% | kinase still bound, per cent of control (IGF1R (human)): 93% | kinase still bound, per cent of control (YSK4 (human)): 65% | kinase still bound, per cent of control [3]: 81% | kinase still bound, per cent of control [4]: 4.4% | kinase still bound, per cent of control (PIK3C2G (human)): 81% | kinase still bound, per cent of control (CaMK1 (human)): 81% | kinase still bound, per cent of control (STK25 (human)): 92% | kinase still bound, per cent of control [5]: 98% | kinase still bound, per cent of control (FGR (human)): 100% | kinase still bound, per cent of control (MATK (human)): 81% | kinase still bound, per cent of control (EIF2AK2 (human)): 82% | kinase still bound, per cent of control (GRK7 (human)): 72% | kinase still bound, per cent of control (PKN2 (human)): 58% | kinase still bound, per cent of control [6]: 96% | kinase still bound, per cent of control (SRMS (human)): 94% | kinase still bound, per cent of control (CIT (human)): 100% | kinase still bound, per cent of control (MAP3K11 (human)): 91% | kinase still bound, per cent of control (CSNK1D (human)): 18% | kinase still bound, per cent of control (PRKD3 (human)): 80% | kinase still bound, per cent of control (WEE1 (human)): 100% | kinase still bound, per cent of control (PHKG1 (human)): 87% | kinase still bound, per cent of control (FLT3 (human)): 77% | kinase still bound, per cent of control (EIF2AK1 (human)): 100% | kinase still bound, per cent of control (DDR2 (human)): 89% | kinase still bound, per cent of control (PDPK1 (human)): 61% | kinase still bound, per cent of control [7]: 50% | kinase still bound, per cent of control (TRPM6 (human)): 98% | kinase still bound, per cent of control (ERBB4 (human)): 96% | kinase still bound, per cent of control [8]: 100% | kinase still bound, per cent of control (MAST1 (human)): 97% | kinase still bound, per cent of control (KIT (human)): 3.5%
